This assay addresses T1, human DPP-IV (Homo sapiens, UniProt P27487).
T1 construct: made in house; host or cells: Pichia pastoris, purified from the culture medium
As to the kind of experiment: DPP-IV activity assay (colorimetric / fluorometric), IC50 determination. The format is biochemical. Particulars: natural human DPP-IV from human plasma pool or recombinant human DPP-IV; 37° C., pH 7.8. How it is done: The following tests were carried out in order to determine the activity of the compounds of formula I.
Activity of DPP-IV inhibitors are tested with natural human DPP-IV derived from a human plasma pool or with recombinant human DPP-IV. Human citrate plasma from different donors is pooled, filtered through a 0.2 micron membrane under sterile conditions, and aliquots of 1 ml are shock frozen and stored at −120° C. until used. In the colorimetric DPP-IV assay 5 to 10 μl human plasma, and in the fluorometric assay 1.0 μl of human plasma in a total assay volume of 100 μl is used as an enzyme source. The cDNA of the human DPP-IV sequence of amino acid 31- to 766, restricted for the N-terminus and the transmembrane domain, is cloned into pichia pastoris. The sequence is available under Accession Number NM_001935. It is also disclosed, for example, in Misumi et al. (1992), molecular cloning and sequence analysis of human dipeptidyl peptidase IV, a serine proteinase of the cell surface. Biochim Biophys. Acta 1131(3), 333-336. Human DPP-IV is expressed and purified from the culture medium using conventional column chromatography including size exclusion and anion and cation chromatography. The purity of the final enzyme preparation of Coomassie blue SDS-PAGE is >95%. In the colorimetric DPP-IV assay 20 ng rec.-h DPP-IV and in the fluorometric assay 2 ng rec-h DPP-IV in a total assay volume of 100 μl is used as an enzyme source.
In the fluorogenic assay Ala-Pro-7-amido-4-trifluoromethylcoumarin (Calbiochem No 125510) is used as a substrate. A 20 mM stock solution in 10% DMF/H2O is stored at −20° C. until use. In IC50 determinations a final substrate concentration of 50 μM is used. In assays to determine kinetic parameters as Km, Vmax, Ki, the substrate concentration is varied between 10 μM and 500 μM.
In the colorimetric assay H-Ala-Pro-pNA.HCl (Bachem L-1115) is used as a substrate. A 10 mM stock solution in 10% MeOH/H2O is stored at −20° C. until use. In IC50 determinations a final substrate concentration of 200 μM is used. In assays to determine kinetic parameters as Km, Vmax, Ki, the substrate concentration is varied between 100 μM and 2000 μM.
Fluorescence is detected in a Perkin Elmer Luminescence Spectrometer LS 50B at an excitation wavelength of 400 nm and an emission wavelength of 505 nm continuously every 15 seconds for 10 to 30 minutes. Initial rate constants are calculated by best fit linear regression.
The absorption of pNA i.e., para-nitroanilin, liberated from the colorimetric substrate is detected in a Packard SpectraCount at […] continuously every 2 minutes for 30 to 120 minutes. Initial rate constants are calculated by best fit linear regression.
DPP-IV activity assays are performed in 96 well plates at 37° C. in a total assay volume of 100 μl. The assay buffer consists of 50 mM Tris/HCl pH 7.8 containing 0.1 mg/ml BSA and 100 mM NaCl. Test compounds are solved in 100% DMSO, diluted to the desired concentration in 10% DMSO/H2O. The final DMSO concentration in the assay is 1% (v/v). At this concentration enzyme inactivation by DMSO is <5%. Compounds are with (10 minutes at 37° C.) and without preincubation with the enzyme. Enzyme reactions are started with substrate application followed by immediate mixing.
IC50 determinations of test compounds are calculated by non-linear best fit regression of the DPP-IV inhibition of at least 5 different compound concentrations. Kinetic parameters of the enzyme reaction are calculated at least 5 different substrate concentrations and at least 5 different test compound concentrations.
T1 sequence (P27487 31-766): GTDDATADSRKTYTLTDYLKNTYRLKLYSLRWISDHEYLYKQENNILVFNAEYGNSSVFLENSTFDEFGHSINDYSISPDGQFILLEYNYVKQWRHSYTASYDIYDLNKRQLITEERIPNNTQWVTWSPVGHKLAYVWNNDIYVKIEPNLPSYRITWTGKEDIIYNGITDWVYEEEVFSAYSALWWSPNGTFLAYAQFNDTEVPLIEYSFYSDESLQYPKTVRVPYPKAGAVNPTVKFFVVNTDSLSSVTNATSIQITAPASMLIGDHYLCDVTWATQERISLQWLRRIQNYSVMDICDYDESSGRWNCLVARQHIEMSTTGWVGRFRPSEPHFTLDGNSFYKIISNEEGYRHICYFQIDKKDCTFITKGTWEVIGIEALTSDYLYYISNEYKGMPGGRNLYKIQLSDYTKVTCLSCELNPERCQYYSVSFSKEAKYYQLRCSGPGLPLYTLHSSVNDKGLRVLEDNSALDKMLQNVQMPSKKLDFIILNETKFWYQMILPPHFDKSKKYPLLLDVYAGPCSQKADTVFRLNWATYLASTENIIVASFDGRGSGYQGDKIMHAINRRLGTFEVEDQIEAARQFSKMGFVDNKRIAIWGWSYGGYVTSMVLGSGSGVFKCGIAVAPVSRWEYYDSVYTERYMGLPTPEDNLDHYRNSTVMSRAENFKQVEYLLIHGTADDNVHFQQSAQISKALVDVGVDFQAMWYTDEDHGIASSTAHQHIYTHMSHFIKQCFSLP
Take `COc1cc2c(cc1OC)-c1nc(N)c(CN)c(-c3ccc(Cl)cc3Cl)c1C2` [Example 7, 3-Aminomethyl-4-(2,4-dichloro-phenyl)-7,8-dimethoxy-5H-indeno[1,2-b]pyridin-2-ylamine]: the IC50 turned out to be 2.7 nM.

Turning to `Cc1ccc(-c2c(CN)c(N)nc3ccccc23)cc1` [Example 25, 3-Aminomethyl-4-p-tolyl-quinolin-2-ylamine], the half-inhibitory concentration (IC50) came out at 1910 nM. In the case of `NCc1c(N)nc2c(c1-c1ccc(Cl)cc1Cl)CCc1ccccc1-2` [Example 3, 3-Aminomethyl-4-(2,4-dichloro-phenyl)-5,6-dihydro-benzo[h]quinolin-2-ylamine] it was 45 nM; in that of `NCc1c(N)nc2c(c1-c1ccc(Cl)cc1Cl)CCc1sccc1-2` [Example 10, 3-Aminomethyl-4-(2,4-dichloro-phenyl)-5,6-dihydro-thieno[2,3-h]quinolin-2-ylamine], 80 nM; in that of `NCc1c(N)nc2ccc(Cl)cc2c1-c1ccccc1Cl` [Example 28, 3-Aminomethyl-6-chloro-4-(2-chloro-phenyl)-quinolin-2-ylamine], 1590 nM. In the case of `NCc1c(N)nc2ccccc2c1-c1ccccc1Cl` [Example 32, 3-Aminomethyl-4-(2-chloro-phenyl)-quinolin-2-ylamine] it was 366 nM. Consider `NCc1c(N)nc2c(c1-c1ccc(Cl)cc1Cl)COc1ccccc1-2` [Example 9, 2-Aminomethyl-1-(2,4-dichloro-phenyl)-10H-9-oxa-4-aza-phenanthren-3-ylamine], for which the IC50 came to 18 nM.

The record behind these values is patent US6800650B2, “Pyridine and quinoline derivatives” (Hoffmann-La Roche Inc., priority 2002, dated 2004).
